Reference: patent US20120207740A1, “Method for Treating Pervasive Development Disorders” (CUREMARK, LLC, priority 1999, published 2012)

Columns and labels:
[1] = system: children diagnosed with Autism; settings: secretin given as diagnostic procedure during upper gastrointestinal endoscopy; Horvath et al. 1998; cited from earlier work
[2] = system: children diagnosed as having autism; test: CARS (Childhood Autism Rating Scale) test pre- and post-secretin administration (Experiment 1); assay type: in vivo, human; settings: 16 autistic children
Description: Upon determining that a given child was likely to benefit from secretin administration based on the results of the fecal chymotrypsin test, the child was administered a CARS (Childhood Autism Rating Scale) test prior to being scheduled for secretin infusion.
For each of the 16 autistic children tested, a preferred secretin infusion process according to the present invention was performed involving the administering of 1 U/kg of body weight of Secretin-Ferring for a period of nine months at intervals of approximately 6 weeks. In addition, another CARS test was administered to each of the 16 autistic children 3 weeks post secretin administration to determine if their autism had changed post infusion.
A preferred secretin infusion process includes the initial step of prepping an arm of the candidate child with an IV injection of saline. A test dose of 1 U of Secretin-Ferring is then administered to the child. Approximately one minute after infusion, the child is examined for signs of allergic reaction including rash, increased heart rate, and increase of blood pressure. […] Subsequently, each child receives a 1 U/kg of body weight infusion of Secretin-Ferring approximately every 6 weeks for 9 months. It is to be understood that any commercially available form of secretin may be used.

[3] = system: autistic children with abnormal fecal chymotrypsin levels; test: Fecal chymotrypsin levels of 37 autistic children administered secretin over 6 months (Experiment 2); assay type: in vivo, human; settings: 6 Months Post-Secretin Administration, of 37 children
Description: (§1) In this experiment, 16 children diagnosed as having autism were administered the following Fecal Chymotrypsin Test in accordance with an embodiment of the invention. First, approximately 2 grams of stool were collected from each child and placed in a sterile container (although it is to be understood that any quantity of stool may be collected, as 2 grams of stool is not a required amount). Each stool sample was then analyzed using, e.g., an enzymatic photospectrometry analysis as is known by those skilled in the art, to determine the level of fecal chymotrypsin in the stool. Although the enzymatic photospectrophotometry process is preferred, any suitable conventional method may be used for measuring the fecal chymotrypsin levels. The measured chymotrypsin levels of the 16 autistic children are illustrated in FIG. 13.
(§2) After determining the chymotrypsin levels of the stools, each of these levels were compared with threshold chymotrypsin levels to determine if the child was likely to benefit from secretin administration. By way of example, with the fecal chymotrypsin tests of the stool samples being performed at 30° C., normal levels of chymotrypsin are deemed to lie above 8.4 U/gram, whereas pathologically abnormal levels are deemed to lie below 4.2 U/gram. In addition, chymotrypsin levels between 8.4 U/gram and 4.2 U/gram are considered equivocal, and further testing of the individual's fecal chymotrypsin levels over a period of time should be performed.
A preferred secretin infusion process includes the initial step of prepping an arm of the candidate child with an IV injection of saline. A test dose of 1 U of Secretin-Ferring is then administered to the child. […]
In this experiment, 37 autistic children with abnormal fecal chymotrypsin levels were administered secretin over the course of 6 months using the secretin infusion process described above. Their fecal chymotrypsin (FC) levels were measured weekly using the fecal chymotrypsin test described above.

[4] = system: children diagnosed as having autism; test: Fecal Chymotrypsin Test before and after secretin infusion in 16 autistic children (Experiment 1); assay type: in vivo, human; settings: each of 16 autistic children; approximately one week after first secretin infusion, 1 U/kg IV
Description: as §1
as §2, with “In addition, chymotrypsin levels between 8.4 U/gram and 4.2 U/gram are considered equivocal, and further testing of the individual's fecal chymotrypsin levels over a period of time should be performed.” left out

secretin
symptoms associated with Autism [1]: ameliorating the symptoms
CARS component scores (except fear component) ([2]; 3 weeks post infusion): demonstrated improvement
overall CARS scores post-secretin versus pre-secretin ([2]; approximately 3 weeks after first secretin administration): overall decrease
# Autistic Children w/Equivocal FC levels ([3]; 0 equivocal pre-secretin): 2
# Autistic Children w/normal FC levels ([3]; 0 normal pre-secretin): 34
# Autistic Children w/Abnormal FC levels ([3]; 37 abnormal pre-secretin): 1
fecal chymotrypsin level post-secretin administration versus pre-secretin [4]: increased
